Measured values reported in US11214803B2, “Modulators of YAP1 expression” (Ionis Pharmaceuticals, Inc., priority 2019, dated 2022).
Strand notation (5' to 3'): a small letter for the sugar, then the base; units joined by * are phosphorothioate-linked, units joined directly phosphodiester-linked; [ ] holds rarer units or linkages, { } end groups; capitals alone tell only the bases. k = constrained ethyl (cEt); [5mC] = 5-methylcytosine; d = 2'-deoxy (DNA)

How the values were obtained:
[1] = test system: Yap1 mRNA; assay: Antisense inhibition of human Yap1 in A-431 cells by cEt gapmers, single dose (Example 2, RTS4814); type: cell-based
Method: Modified oligonucleotides were designed to target a Yap1 nucleic acid and were tested for their effect on Yap1 mRNA level in vitro. The modified oligonucleotides were tested in a series of experiments that had similar culture conditions. Cultured A-431 cells at a density of 5,000 cells per well were treated using free uptake with 2,000 nM of modified oligonucleotide. After a treatment period of approximately 48 hours, RNA was isolated from the cells and Yap1 mRNA levels were measured by quantitative real-time RTPCR. Human primer probe set RTS4814 was used to measure mRNA levels. Yap1 mRNA levels were normalized to total RNA content, as measured by RIBOGREEN®. Results are presented in the tables below as percent control of the amount of Yap1 mRNA relative to untreated control cells (% UTC). The modified oligonucleotides with percent control values marked with an asterisk (*) target the amplicon region of the primer probe set. Additional assays may be used to measure the potency and efficacy of the modified oligonucleotides targeting the amplicon region.
The newly designed modified oligonucleotides in the Tables below were designed as 3-10-3 cEt gapmers. The gapmers are 16 nucleosides in length, wherein the central gap segment comprises of ten 2′-deoxynucleosides and is flanked by wing segments on the 5′ direction and the 3′ direction comprising three nucleosides each. Each nucleoside in the 5′ wing segment and each nucleoside in the 3′ wing segment has a cEt sugar modification. The internucleoside linkages throughout each gapmer are phosphorothioate (P═S) linkages. All cytosine residues throughout each gapmer are 5-methylcytosines.
“Start site” indicates the 5′-most nucleoside to which the gapmer is targeted in the human gene sequence. “Stop site” indicates the 3′-most nucleoside to which the gapmer is targeted human gene sequence. […] Activity ofthe modified oligonucleotide may be defined in a different experiment.

[2] = test system: Yap1 mRNA; assay: Dose-dependent inhibition of human Yap1 in A-431 cells (Example 8, 10,000 cells per well, RTS4814); type: cell-based; settings: free uptake, approximately 48 hours, RTS4814; for Yap1 mRNA, % UTC: A-431 cells, 10,000 cells per well; for IC50: A-431 cells, linear regression on log/linear plot
Summary of the method: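 Yap1 mRNA, normalized to RIBOGREEN total RNA and expressed as % untreated control, was read with RTS4814 about 48 h after free-uptake oligonucleotide treatment of A-431 cells at 10,000 cells/well. IC50 derived by linear regression of log/linear data.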

[3] = Yap1 mRNA as percent of untreated control, A-431 cells, 3-10-3 cEt gapmers targeting SEQ ID NO.: 1, and 2, Table 30
[4] = Yap1 mRNA as percent of untreated control, A-431 cells, 3-10-3 cEt gapmers targeting SEQ ID NO.: 1, and 2, Table 31
[5] = Table 18, A-431 cells, 5,000 cells per well, free uptake, 2,000 nM modified oligonucleotide, approx. 48 hours, RTS4814, normalized to RIBOGREEN, Yap1 mRNA as percent of untreated control
[6] = Table 20, Yap1 mRNA, percent of untreated control, 3-10-3 cEt gapmers targeting SEQ ID NO.: 1 and 2
[7] = Table 33, Yap1 mRNA, percent of untreated control, 3-10-3 cEt gapmers targeting SEQ ID NO.: 1, and 2
[8] = A-431 cells, 5,000 cells per well, free uptake, 2,000 nM modified oligonucleotide, approx. 48 hours, RTS4814, normalized to RIBOGREEN, Table 4, asterisk (*) = targets amplicon region of primer probe set

| Substance | Yap1 mRNA, % UTC ([2]; 31.3 nM) [% UTC] | Yap1 mRNA, % UTC ([2]; 125.0 nM) [% UTC] | Yap1 mRNA, % UTC ([2]; 500.0 nM) [% UTC] | Yap1 mRNA, % UTC ([2]; 2000.00 nM) [% UTC] | IC50 [2] [nM] | other results |
| --- | --- | --- | --- | --- | --- | --- |
| 1075760 (kG*kA*kG*dA*dA*dA*dA*dA*d[5mC]*dT*dA*d[5mC]*dG*kG*kA*kT; antisense) [compound 1075760] | – | – | – | – | – | YAP1 (% UTC) [1, 3]: 39 % UTC |
| 1075399 (antisense k[5mC]*kA*kT*dA*dT*dA*dT*dA*dT*dG*dG*d[5mC]*d[5mC]*k[5mC]*kT*kT) [Compound 1075399] | – | – | – | – | – | YAP1 (% UTC) ([1]; Table 21, Yap1 mRNA, percent of untreated control, 3-10-3 cEt gapmers targeting SEQ ID NO.: 1 and 2): 15 % UTC |
| 1075857 (antisense k[5mC]*kT*kT*dA*dA*dA*d[5mC]*dA*dA*dT*d[5mC]*d[5mC]*d[5mC]*kT*kA*kA) [compound 1075857] | – | – | – | – | – | YAP1 (% UTC) [1, 4]: 69 % UTC |
| 1075076 (antisense k[5mC]*kA*kT*dA*dA*d[5mC]*dA*dT*d[5mC]*dA*dT*dG*dG*kA*kA*kG) [Compound 1075076] | – | – | – | – | – | YAP1 (% UTC) [1, 5]: 25 % UTC |
| 1075856 (antisense k[5mC]*k[5mC]*kT*dA*dA*dT*d[5mC]*dA*dA*dG*dT*dT*d[5mC]*kT*kG*k[5mC]) [compound 1075856] | – | – | – | – | – | YAP1 (% UTC) [1, 3]: 40 % UTC |
| 1076070 (kA*kT*kT*dA*dG*dT*dA*dA*dT*dG*d[5mC]*dA*d[5mC]*kA*kG*kG; antisense) [Compound 1076070] | – | – | – | – | – | YAP1 (% UTC) [1, 6]: 6 % UTC |
| 1076275 (kG*kT*kA*dT*dT*dA*dG*dA*dT*dA*dA*dA*dG*k[5mC]*kA*kG; antisense) [compound 1076275] | – | – | – | – | – | YAP1 (% UTC) [1, 7]: 10 % UTC |
| 716439 (kG*kT*kA*dT*dT*dT*dA*dA*dT*dA*dT*d[5mC]*dA*kG*kA*kT; antisense) [Compound 716439] | – | – | – | – | – | YAP1 (% UTC) [1, 8]: 77 % UTC |
| 1075110 (antisense kG*kA*k[5mC]*dT*dA*dA*dA*dA*dA*d[5mC]*dA*dT*dT*kG*kT*kG) [Compound 1075110] | – | – | – | – | – | YAP1 (% UTC) [1, 6]: 120 % UTC |
| 1076036 (k[5mC]*kG*kT*dA*dA*dT*dT*dA*dG*dA*dA*dA*d[5mC]*kT*kT*kG; antisense) [Compound 1076036] | – | – | – | – | – | YAP1 (% UTC) [1, 5]: 19 % UTC |
| 1074483 (k[5mC]*kA*k[5mC]*dT*dA*dA*dT*dA*dT*dG*dG*dT*d[5mC]*kA*kT*kT; antisense) [compound 1074483] | – | – | – | – | – | YAP1 (% UTC) [1, 7]: 15 % UTC |
| 1076176 (k[5mC]*kT*k[5mC]*d[5mC]*dA*dA*dT*dA*dG*dG*dT*dA*dA*k[5mC]*kA*kG; antisense) [compound 1076176] | – | – | – | – | – | YAP1 (% UTC) [1, 3]: 43 % UTC |
| 1074513 (kA*kG*kG*dA*dT*dA*d[5mC]*dA*dT*dT*d[5mC]*d[5mC]*dA*k[5mC]*kT*kA; antisense) [compound 1074513] | – | – | – | – | – | YAP1 (% UTC) [1, 4]: 47 % UTC |
| 1074762 (kG*k[5mC]*kT*dA*d[5mC]*d[5mC]*d[5mC]*dA*dA*dT*dA*d[5mC]*dA*kA*k[5mC]*k[5mC]; antisense) [Compound 1074762] | – | – | – | – | – | YAP1 (% UTC) ([1]; Table 24, Yap1 mRNA as percent of untreated control, 3-10-3 cEt gapmers targeting SEQ ID NO.: 1, and 2): 6 % UTC |
| 1074504 (kT*k[5mC]*kG*dA*dG*dA*dT*dT*dT*dA*dA*dA*dT*kA*kA*kG; antisense) [Compound 1074504] | – | – | – | – | – | YAP1 (% UTC) ([1]; Table 22, Yap1 mRNA as percent of untreated control, 3-10-3 cEt gapmers, single dose): 76 % UTC |
| 716502 (k[5mC]*kA*k[5mC]*dA*dG*dT*dG*dA*dT*dT*dG*d[5mC]*dA*kT*kT*kT; antisense) [Compound 716502] | – | – | – | – | – | YAP1 (% UTC) [1, 8]: 11 % UTC |
| 1074537 (k[5mC]*kA*kG*dT*dA*dA*dT*dA*dG*d[5mC]*dT*d[5mC]*dT*kT*kT*k[5mC]; antisense) [compound 1074537] | 47 | 21 | 6 | 4 | < 20 | – |
| 1074563 (DNA kT*kG*kA*dA*dT*dT*d[5mC]*d[5mC]*dA*dA*dT*d[5mC]*dG*kA*kG*kA; antisense) [compound 1074563] | 80 | 31 | 7 | 5 | 100 | – |
| 1074630 (antisense kA*kG*kA*dG*dA*dT*dT*dT*dT*dA*dT*dG*d[5mC]*k[5mC]*kT*kG) [compound 1074630] | 57 | 23 | 10 | 6 | < 20 | – |
| 1074595 (DNA kT*kA*kG*dA*dA*dG*dT*dA*dG*dG*dA*dG*d[5mC]*kA*kA*kG; antisense) [compound 1074595] | 67 | 21 | 8 | 4 | 40 | – |
| 1076288 (k[5mC]*kT*kT*dA*dT*dT*dT*dA*dG*d[5mC]*dA*dT*dA*kG*kT*kG; antisense) [compound 1076288] | 31 | 7 | 3 | 4 | < 20 | – |
| 1075078 (antisense k[5mC]*kA*kA*d[5mC]*dT*dA*dT*dA*d[5mC]*dG*dG*dT*d[5mC]*k[5mC]*kA*kT) [compound 1075078] | 65 | 32 | 12 | 4 | 100 | – |
| 1076449 (k[5mC]*k[5mC]*kT*dT*dA*dT*dA*dA*dT*dG*d[5mC]*dA*dA*kT*k[5mC]*k[5mC]; antisense) [compound 1076449] | 44 | 8 | 3 | 2 | < 20 | – |
| 1076295 (kG*kT*kA*dT*dA*dT*dT*dA*dG*dT*dG*d[5mC]*d[5mC]*k[5mC]*k[5mC]*k[5mC]; antisense) [compound 1076295] | 55 | 17 | 5 | 3 | < 20 | – |
| 1076004 (kT*kA*kA*dT*dT*dT*dA*dA*dT*dG*dG*d[5mC]*dT*kT*kG*k[5mC]; antisense) [compound 1076004] | 27 | 7 | 3 | 2 | < 20 | – |
| 1074628 (DNA kG*k[5mC]*k[5mC]*dT*dG*dT*dT*dA*dT*dG*dA*dA*d[5mC]*k[5mC]*k[5mC]*kT) [compound 1074628] | 29 | 13 | 7 | 6 | < 20 | – |
| 1074565 (DNA kA*k[5mC]*kT*dG*dA*dA*dT*dT*d[5mC]*d[5mC]*dA*dA*dT*k[5mC]*kG*kA; antisense) [compound 1074565] | 47 | 20 | 9 | 6 | < 20 | – |
| 1074851 (kA*kT*kT*dG*dT*dT*dA*dT*dG*dA*dT*dA*dG*kG*k[5mC]*kA; antisense) [compound 1074851] | 51 | 19 | 9 | 7 | < 20 | – |
| 1074597 (DNA kA*kG*kT*dA*dT*dT*d[5mC]*dT*dA*dT*d[5mC]*d[5mC]*dA*kG*kG*kG; antisense) [compound 1074597] | 35 | 15 | 8 | 7 | < 20 | – |
| 1075749 (kA*kA*kT*dT*dA*dT*dG*dA*dA*dT*dG*dA*dT*kG*kG*kG; antisense) [compound 1075749] | 46 | 22 | 7 | 4 | < 20 | – |
